Experimental data: patent US6692753B2, “Potentiation of the immune response” (priority 1997, dated 2004)
Entries after “also recorded” stand apart in the source; their conditions may differ.

Legend:
[1] = test system: PBMC from HIV-infected individuals; assay: Proliferation of PBMC from HIV-infected individuals, 3H thymidine incorporation; type: cell-based, human; details: for stimulation of proliferation: higher doses (10^−4M), PBMC of HIV-infected patients; for stimulation of proliferation (incorporation of 3H thymidine, cpm): very low / low doses, PBMC from HIV-infected patients, in vitro
Excerpt: If desired, additional in vitro assays can be carried out using candidate compounds of the invention, prior to their use in vivo. One such assay employs the candidate compound at a very low concentration, in a test designed to determine whether at low concentrations the compound can stimulate the proliferation of PBMC from HIV infected patients in vitro. As is shown in the data of FIG. 4, stimulation can be measured by, e.g., incorporation of a labelled nucleotide. Peripheral blood mononuclear cells (PBMC) were obtained by standard methods from HIV-infected individuals, and from uninfected individuals. Varying dosages of KBP or VBP were contacted with the PBMC in vitro, and stimulation of proliferation was measured by incorporation of ^3H thymidine (cpm).

CD4/CD8+ T cells = assay: Cell death of purified resting T-cells, 7AAD flow cytometry; type: cell-based, human; details: overnight incubation, 10^−4M or 10^−6M
Protocol: CD19+B cells and CD4/CD8+ T cells were isolated (>90% and >97% purity, respectively). The cells were then incubated overnight in the presence or absence of VBP (10^−4M or 10^−6M). The amount of death induced by VBP treatment was determined by 7AAD flow cytometry analysis. The data represents the mean percent of death from duplicate samples.
The amount of cell death was determined by 7AAD flow cytometry analysis. Data represent % of cell death from duplicate samples.

[2] = test system: cytoplasmic T-cell enzyme (post-prolyl dipeptidase) in Jurkat T-cell cytoplasmic extract; assay: Enzymatic activity of Jurkat T-cell cytoplasmic extract, fluorescent cleavage of Ala-ProAFC; type: biochemical, human; details: varying concentrations
Protocol: A suitable enzyme-containing cell extract can be prepared as follows. First, Jurkat cells (10^6-10^11 cells) are grown and a cell pellet is obtained by centrifugation. The cell pellet is stored in frozen condition.
For use in the assay, the frozen pellet is thawed by the addition of ice cold lysis buffer, in the amount of approximately 1 ml per 10^8 cells. The liquified material is homogenized with ten strokes of a Dounce homogenizer, and then clarified by centrifugation at 1500 g. The supernatant is removed (and saved), and the 1500 g. pellet is resuspended in lysis buffer and homogenized with ten strokes of a Dounce homogenizer. Clarification is again carried out by centrifugation at 1500 g, 4° C.
The 1500 g supernatants are then combined, and EDTA is added to 5mM. The resultant liquid is centrifuged at 75,000 g at 4° C. for twenty minutes, and the supernatant is then removed and centrifuged at 175,000 g. at 4° C., for 60 minutes. […]
In the assay we carried out, we employed a fluorescence spectrometer for excitation at 400 nm and emission at 505 nm. […]
In the test samples, multiple samples are run containing varying concentrations, down to 10^−8 M, of the test compound. […] Enzymatic activity is measured as the accumulation of fluoresence intensity (i.e., substrate cleavage product) over time (1 min.).

[3] = test system: CD26+ and CD26− PBMC populations; assay: Cell death of sorted CD26+ and CD26− PBMC populations, 7AAD flow cytometry; type: cell-based, human; details: overnight, various (moderate) concentrations
Protocol: PBMC were stained with the anti-CD26 monoclonal antibody, 4 EL, and then sorted into CD26^+ and CD26^− populations using a facstar plus dual lasar flow cytometry. The cells expressing the highest level )top 5%) of CD26 and the cells expressing the lowest level (bottom 10%) of CD26 were isolated as the CD26^+ and CD26^− populations respectively. […] The CD26^+ and CD26^− populations were cultured overnight in the presence or absence of various concentrations of VBP. The amount of death induced by VBP treatment was determined by 7AAD flow cytometry analysis. Data represent mean percent of death from duplicate samples +/−SD.
The amount of cell death was determined by 7AAD flow cytometry analysis. Data represent mean % of death from duplicate samples.

NCCCC[C@H](N)C(=O)N1CCC[C@H]1B(O)O [Lys-boroPro]
stimulation of proliferation [1]: do not have this effect | stimulation of proliferation (incorporation of 3H thymidine, cpm) [1]: stimulated proliferation; also recorded: cause proliferation

CC(C)[C@H](N)C(=O)N1CCC[C@H]1B(O)O [Val-boroPro]
cell death / apoptosis (7AAD) (CD4/CD8+ T cells): highly sensitive | cell death / apoptosis (7AAD) (CD4/CD8+ T cells; listed as VBP): dose-dependent apoptosis | inhibition of enzymatic activity (AFC release from Ala-ProAFC) [2]: inhibited | inhibition of enzymatic activity (AFC release from Ala-ProAFC) ([2]; listed as val-boroPro): inhibited the cytoplasmic enzyme | stimulation of proliferation [1]: do not have this effect | stimulation of proliferation (incorporation of 3H thymidine, cpm) [1]: stimulated proliferation; also recorded: cause proliferation | cell death / apoptosis (7AAD) [3]: equally susceptible | cell death / apoptosis (7AAD) ([3]; listed as VBP): dose-dependent apoptosis in both CD26^+ and CD26^− populations; also recorded: equally susceptible
